Measurements: the CheMixHub viscosity set

Assay: xn = mol fraction of the nth substance listed

CN(C)CCCN + O
viscosity [mPa·s]
Conditions	293.15 K	303.15 K	308.15 K	313.15 K	318.15 K	323.15 K
100 kPa, x1 = 0.1	8.105	5.084	–	3.421	–	2.362
100 kPa, x1 = 0.1998	13.62	8.093	–	5.329	–	3.605
100 kPa, x1 = 0.2998	11.49	7.049	–	4.586	–	3.142
100 kPa, x1 = 0.4004	7.437	4.84	–	3.296	–	2.359
100 kPa, x1 = 0.5003	4.661	3.222	–	2.339	–	1.759
100 kPa, x1 = 0.5989	3.168	2.25	–	1.781	–	1.363
100 kPa, x1 = 0.6992	2.225	1.7	–	1.333	–	1.076
100 kPa, x1 = 0.8005	1.691	1.294	–	1.046	–	0.8667
100 kPa, x1 = 0.8999	1.327	1.07	–	0.8872	–	0.75
101 kPa, x1 = 0.0488	–	2.376	–	–	–	–
101 kPa, x1 = 0.0996	–	4.856	3.946	3.263	2.739	2.323
101 kPa, x1 = 0.0999	–	5.01	–	–	–	–
101 kPa, x1 = 0.147	–	7.175	–	–	–	–
101 kPa, x1 = 0.1504	–	7.078	5.637	4.578	3.791	3.16
101 kPa, x1 = 0.1743	–	7.96	–	–	–	–
101 kPa, x1 = 0.1994	–	8.356	6.623	5.341	4.372	3.624
101 kPa, x1 = 0.1999	–	8.348	–	–	–	–
101 kPa, x1 = 0.2247	–	8.378	–	–	–	–
101 kPa, x1 = 0.2497	–	8.194	–	–	–	–
101 kPa, x1 = 0.2521	–	8.394	6.631	5.351	4.383	3.636
101 kPa, x1 = 0.2744	–	7.787	–	–	–	–
101 kPa, x1 = 0.2995	–	7.688	6.133	4.967	4.089	3.402
101 kPa, x1 = 0.2998	–	7.275	–	–	–	–
101 kPa, x1 = 0.3809	–	6.001	4.861	4.005	3.354	2.831
101 kPa, x1 = 0.5	–	3.919	3.282	2.77	2.372	2.049
101 kPa, x1 = 0.5994	–	2.525	2.116	1.884	1.65	1.461
101 kPa, x1 = 0.6826	–	1.939	1.701	1.502	1.339	1.201
101 kPa, x1 = 0.7798	–	1.492	1.329	1.191	1.077	0.9811
101 kPa, x1 = 0.8918	–	1.163	1.042	0.9578	0.8777	0.8099
